Our source for the IC50 values is patent publication US11555012B2 (Nimbus Artemis, Inc., priority 2018, dated 2023).

Test [1] has as its target T1, ACL (Homo sapiens (Human), UniProt P53396). The test is described as follows: ADP-Glo Assay. In general terms: In ADP-Glo the light output rises with the ADP produced.
Target sequence in this assay (P53396 other isoform, or with tags, fused parts or gaps isoform P53396-2): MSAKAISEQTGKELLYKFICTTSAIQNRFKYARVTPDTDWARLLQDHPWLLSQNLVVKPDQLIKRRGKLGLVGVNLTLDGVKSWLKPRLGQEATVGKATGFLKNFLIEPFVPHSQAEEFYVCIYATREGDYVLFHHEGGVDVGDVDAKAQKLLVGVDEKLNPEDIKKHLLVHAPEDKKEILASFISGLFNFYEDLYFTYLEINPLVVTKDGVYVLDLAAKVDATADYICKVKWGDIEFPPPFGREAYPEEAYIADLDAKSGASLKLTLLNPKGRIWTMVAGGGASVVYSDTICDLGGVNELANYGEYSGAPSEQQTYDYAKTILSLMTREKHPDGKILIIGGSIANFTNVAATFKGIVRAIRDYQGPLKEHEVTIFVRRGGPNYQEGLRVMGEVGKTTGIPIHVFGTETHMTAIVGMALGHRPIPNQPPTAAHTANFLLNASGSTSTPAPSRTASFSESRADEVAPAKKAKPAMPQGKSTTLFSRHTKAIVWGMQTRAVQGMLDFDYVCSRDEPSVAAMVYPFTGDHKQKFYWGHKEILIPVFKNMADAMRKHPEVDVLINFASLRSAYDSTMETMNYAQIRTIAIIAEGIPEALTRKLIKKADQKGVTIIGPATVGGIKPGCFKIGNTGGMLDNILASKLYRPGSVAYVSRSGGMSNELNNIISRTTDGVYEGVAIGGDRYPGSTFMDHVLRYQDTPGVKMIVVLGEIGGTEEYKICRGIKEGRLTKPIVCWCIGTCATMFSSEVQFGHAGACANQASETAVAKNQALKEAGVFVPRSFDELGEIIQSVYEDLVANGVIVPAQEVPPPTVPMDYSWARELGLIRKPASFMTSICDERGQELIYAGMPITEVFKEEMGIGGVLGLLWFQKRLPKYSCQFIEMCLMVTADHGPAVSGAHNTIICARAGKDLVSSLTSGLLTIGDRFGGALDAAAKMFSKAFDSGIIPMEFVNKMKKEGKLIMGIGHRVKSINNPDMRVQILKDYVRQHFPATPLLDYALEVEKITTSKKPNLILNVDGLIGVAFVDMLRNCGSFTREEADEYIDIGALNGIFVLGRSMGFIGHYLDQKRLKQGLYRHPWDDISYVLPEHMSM
For test [2], the target named is T1, ACL. The test is described as follows: ACLY-MDH Coupled Assay.
Target sequence in this assay (P53396 whole entry, species assumed): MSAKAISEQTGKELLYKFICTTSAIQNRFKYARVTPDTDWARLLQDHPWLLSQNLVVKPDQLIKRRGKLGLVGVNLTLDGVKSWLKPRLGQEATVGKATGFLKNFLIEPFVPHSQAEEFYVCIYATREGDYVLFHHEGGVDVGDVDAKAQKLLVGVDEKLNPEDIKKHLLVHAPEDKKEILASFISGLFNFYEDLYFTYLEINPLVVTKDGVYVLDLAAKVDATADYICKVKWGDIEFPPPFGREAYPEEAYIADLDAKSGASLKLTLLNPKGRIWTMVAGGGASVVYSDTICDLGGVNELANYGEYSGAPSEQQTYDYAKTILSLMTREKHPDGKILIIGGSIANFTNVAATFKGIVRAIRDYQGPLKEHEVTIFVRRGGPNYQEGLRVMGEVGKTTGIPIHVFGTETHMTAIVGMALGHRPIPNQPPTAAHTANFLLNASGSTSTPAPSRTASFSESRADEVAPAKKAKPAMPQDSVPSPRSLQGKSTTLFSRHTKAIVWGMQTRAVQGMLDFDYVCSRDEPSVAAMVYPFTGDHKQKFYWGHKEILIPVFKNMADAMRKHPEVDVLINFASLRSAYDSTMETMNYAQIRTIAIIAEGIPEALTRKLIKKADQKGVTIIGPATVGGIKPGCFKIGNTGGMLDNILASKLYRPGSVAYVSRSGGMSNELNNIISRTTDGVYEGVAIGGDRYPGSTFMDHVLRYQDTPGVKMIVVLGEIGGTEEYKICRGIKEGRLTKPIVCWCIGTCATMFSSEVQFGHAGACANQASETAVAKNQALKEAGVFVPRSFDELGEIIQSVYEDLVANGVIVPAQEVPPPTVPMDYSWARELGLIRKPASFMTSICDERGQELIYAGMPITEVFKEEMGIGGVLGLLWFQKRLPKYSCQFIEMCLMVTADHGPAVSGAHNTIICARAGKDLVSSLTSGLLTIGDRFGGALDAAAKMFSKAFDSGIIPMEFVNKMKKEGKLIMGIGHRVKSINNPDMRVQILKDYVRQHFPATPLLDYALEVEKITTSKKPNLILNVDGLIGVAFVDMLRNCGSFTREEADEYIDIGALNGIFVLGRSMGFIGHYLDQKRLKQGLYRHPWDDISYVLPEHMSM
Experimental: Compounds of the present invention were evaluated in an ACLY Coupled Assay.
The assay protocol for the Coupled Assay (below) was followed:
b) Add 1 μL cpds to 96 assay plate, Test cpd conc: 100/30/10 μM top dose, 3 folds dilution, 10+0+control (control: buffer without ACL+DMSO) points, 1000 rpm for 1 min, incubation at 25° C. for 60 min
The mark [3] stands for this setting: read-out: ACL-ADP-Glo (IC50), 3 nM ACL, 15 μM ATP, 3 μM CoA, 300 μM Citrate.

The IC50 is the concentration needed to halve the response being measured.

A value given as a limit tells only on which side of the number the result lay.

Consider `O=C(c1cc(Cl)c(O)c(S(=O)(=O)Nc2cc(C3CC3)c(F)cc2F)c1)N1CCCC1` [I-193, 3-chloro-N-(5-cyclopropyl-2,4-difluorophenyl)-2-hydroxy-5-(pyrrolidine-1-carbonyl)benzene-1-sulfonamide], for which the figures for the IC50 on ACL [1] and at ACL [2] were 500 to 20000 nM and 500 to 30000 nM, respectively.
On the same counts, the results for `O=C(c1cc(Cl)c(O)c(S(=O)(=O)Nc2cc(C3CC3)c(F)cc2F)c1)N1CC(F)C1` [I-194, 3-chloro-N-(5-cyclopropyl-2,4-difluorophenyl)-5-(3-fluoroazetidine-1-carbonyl)-2-hydroxybenzene-1-sulfonamide] are 50 to 500 nM and 500 to 30000 nM.
As to `O=C(c1cc(Cl)c(O)c(S(=O)(=O)Nc2cc(-c3cccnc3)c(F)cc2F)c1)N1CCC1` [I-197, 5-(azetidine-1-carbonyl)-3-chloro-N-[2,4-difluoro-5-(pyridin-3-yl)phenyl]-2-hydroxybenzene-1-sulfonamide], the figures for the IC50 against ACL [1] and on ACL [2] were 50 to 500 nM and 500 to 30000 nM, respectively.
With `NC1CN(C(=O)c2cc(Cl)c(O)c(S(=O)(=O)Nc3cc(-c4ccccc4)c(F)cc3F)c2)C1` [I-200, 5-(3-aminoazetidine-1-carbonyl)-3-chloro-N-[4,6-difluoro-[1,1-biphenyl]-3-yl]-2-hydroxybenzene-1-sulfonamide], the half-inhibitory concentration (IC50) on ACL [1] (setting [3]) was below 50 nM; against ACL [2] it was 50 to 500 nM.
On to `CC(C)(C)OC(=O)NC1CN(C(=O)c2cc(Cl)c(O)c(S(=O)(=O)Nc3cc(-c4ccccc4)c(F)cc3F)c2)C1` [I-201, tert-butyl N-[1-[3-chloro-5-([4,6-difluoro-[1,1-biphenyl]-3-yl]sulfamoyl)-4-hydroxybenzoyl]azetidin-3-yl]carbamate], for which the IC50 at ACL [1] lay within 500 to 20000 nM; against ACL [2] it was 500 to 30000 nM.
`O=C(c1cc(Cl)c(O)c(S(=O)(=O)Nc2cc(-c3ccncc3)ccc2F)c1)N1CCC1` [I-202, 5-(azetidine-1-carbonyl)-3-chloro-N-[2-fluoro-5-(pyridin-4-yl)phenyl]-2-hydroxybenzene-1-sulfonamide]: the IC50 against ACL [1] lay in the range of 50 to 500 nM; against ACL [2], 500 to 30000 nM.
`N#Cc1cc(Cl)cc(S(=O)(=O)Nc2cc(-c3cc4ccccc4s3)c(F)cc2F)c1` [I-203, N-(5-(benzo[b]thiophen-2-yl)-2,4-difluorophenyl)-3-chloro-5-cyanobenzenesulfonamide]: the IC50 against ACL [1] is 500 to 20000 nM; against ACL [2] it was above 30000 nM.
As for `O=C(c1cc(Cl)c(O)c(S(=O)(=O)Nc2cc(-c3ccccn3)ccc2F)c1)N1CCC1` [I-206, 5-(azetidine-1-carbonyl)-3-chloro-N-[2-fluoro-5-(pyridin-2-yl)phenyl]-2-hydroxybenzene-1-sulfonamide], the IC50 on ACL [1] and at ACL [2] was 50 to 500 nM in each case.
With `O=C(c1cc(Cl)c(O)c(S(=O)(=O)Cc2cc(-c3ccccc3)c(F)cc2F)c1)N1CCCC1` [I-211, (3-chloro-5-(((4,6-difluoro-[1,1′-biphenyl]-3-yl)methyl)sulfonyl)-4-hydroxyphenyl)(pyrrolidin-1-yl)methanone], the figures for the IC50 against ACL [1] and at ACL [2] were 500 to 20000 nM and 500 to 30000 nM, respectively.
For the compound `O=C(O)COc1ccc(-c2ccccc2)cc1NS(=O)(=O)c1cc(Cl)cc(Cl)c1O` [I-212, 2-[[3-(3,5-dichloro-2-hydroxybenzenesulfonamido)-[1,1-biphenyl]-4-yl]oxy]acetic Acid], the values for the IC50 against ACL [1] and against ACL [2] were 50 to 500 nM and 500 to 30000 nM, respectively.
`O=C(c1cc(Cl)c(O)c(S(=O)(=O)Nc2cc3ccsc3cc2F)c1)N1CCC1` [I-221, 5-(azetidine-1-carbonyl)-3-chloro-N-(6-fluoro-1-benzothiophen-5-yl)-2-hydroxybenzene-1-sulfonamide]: the values for the half-maximal inhibitory concentration (IC50) against ACL [1] and on ACL [2] were 500 to 20000 nM and 500 to 30000 nM, respectively.
Regarding `O=C(c1cc(Cl)c(O)c(S(=O)(=O)Nc2cc(-c3ccccc3)ncc2F)c1)N1CCC1` [I-222, 5-(azetidine-1-carbonyl)-3-chloro-N-(5-fluoro-2-phenylpyridin-4-yl)-2-hydroxybenzene-1-sulfonamide], the IC50 at ACL [1] was in the range of 50 to 500 nM; at ACL [2] it was 500 to 30000 nM.
Turning to `N#Cc1cc(Cl)cc(S(=O)(=O)Nc2cc(-c3ccccc3)ccc2C(=O)O)c1` [I-226, 3-((3-chloro-5-cyanophenyl)sulfonamido)-[1,1′-biphenyl]-4-carboxylic acid], the IC50 lay within 500 to 20000 nM at ACL [1] and 500 to 30000 nM on ACL [2].
As for `O=C(c1cc(Cl)c(O)c(S(=O)(=O)N(C(=O)C2CC2)c2cc(-c3ccccc3)c(F)cc2F)c1)N1CCC1` [I-229, N-((5-(azetidine-1-carbonyl)-3-chloro-2-hydroxyphenyl)sulfonyl)-N-(4,6-difluoro-[1,1′-biphenyl]-3-yl)cyclopropanecarboxamide], the values for the IC50 at ACL [1] (setting [3]) and against ACL [2] were below 50 nM and 50 to 500 nM, respectively.
On to `Cc1cc(C)cc(S(=O)(=O)Nc2cc(-c3ccccc3)ccc2C(=O)O)c1` [I-232, 3-((3,5-dimethylphenyl)sulfonamido)-[1,1′-biphenyl]-4-carboxylic acid], for which the results for the IC50 against ACL [1] and on ACL [2] were 500 to 20000 nM and 500 to 30000 nM, respectively.
For the compound `CC(C)(Oc1ccc(-c2ccccc2)cc1NS(=O)(=O)c1cc(Cl)cc(Cl)c1O)C(=O)O` [I-239, 2-((3-((3,5-dichloro-2-hydroxyphenyl)sulfonamido)-[1,1′-biphenyl]-4-yl)oxy)-2-methylpropanoic Acid], the IC50 against ACL [1] lay within 500 to 20000 nM; against ACL [2] it was 500 to 30000 nM.
In the case of `O=S(=O)(Nc1cc(Cl)cc(-c2nccs2)c1)c1cc(Cl)cc(Cl)c1O` [I-240, 3,5-dichloro-N-(3-chloro-5-(thiazol-2-yl)phenyl)-2-hydroxybenzenesulfonamide], the IC50 was in the range of 500 to 20000 nM against ACL [1] and 500 to 30000 nM at ACL [2].
Turning to `O=C(c1cc(Cl)c(O)c(S(=O)(=O)Nc2cc(-n3nccn3)ccc2F)c1)N1CCC1` [I-241, 5-(azetidine-1-carbonyl)-3-chloro-N-(2-fluoro-5-(2H-1,2,3-triazol-2-yl)phenyl)-2-hydroxybenzenesulfonamide], the IC50 was 50 to 500 nM on ACL [1] and 500 to 30000 nM on ACL [2].
Take `O=C(O)c1cc(-c2ccccc2)sc1NS(=O)(=O)c1cc(Cl)cc(Cl)c1` [I-242, 2-((3,5-dichlorophenyl)sulfonamido)-5-phenylthiophene-3-carboxylic Acid]: the IC50 against ACL [1] was 500 to 20000 nM; against ACL [2], 500 to 30000 nM.
In the case of `O=C(O)c1ncc(-c2ccccc2)cc1NS(=O)(=O)c1cc(Cl)cc(Cl)c1` [I-243, 3-((3,5-dichlorophenyl)sulfonamido)-5-phenylpicolinic Acid], the half-inhibitory concentration (IC50) against ACL [1] fell in the range of 500 to 20000 nM; at ACL [2], 500 to 30000 nM.
Take `O=C(O)c1cc(Cl)c(O)c(S(=O)(=O)Nc2cc(-c3cccs3)c(F)cc2F)c1` [I-248, 3-chloro-5-[[2,4-difluoro-5-(thiophen-2-yl)phenyl]sulfamoyl]-4-hydroxybenzoic Acid]: the half-maximal inhibitory concentration (IC50) against ACL [1] was in the range of 500 to 20000 nM; against ACL [2], 500 to 30000 nM.
On the same counts, the results for `O=C(O)c1ccc(-c2ccccc2)cc1NS(=O)(=O)c1cc(Cl)cc(Cl)c1O` [I-249, 3-((3,5-dichloro-2-hydroxyphenyl)sulfonamido)-[1,1′-biphenyl]-4-carboxylic acid] are 500 to 20000 nM and 500 to 30000 nM.
With `O=C(O)COc1ccc(-c2ccccc2)cc1NS(=O)(=O)c1cc(C(F)(F)F)cc(Cl)c1O` [I-264, 2-([3-[3-chloro-2-hydroxy-5-(trifluoromethyl)benzenesulfonamido]-[1,1-biphenyl]-4-yl]oxy)acetic Acid], the IC50 against ACL [1] fell in the range of 500 to 20000 nM; at ACL [2], 500 to 30000 nM.
On to `CC(C)(C)OC(=O)COc1ccc(-c2ccccc2)cc1NS(=O)(=O)c1cc(C(=O)N2CCC2)cc(Cl)c1O` [I-266, tert-butyl 2-((3-((5-(azetidine-1-carbonyl)-3-chloro-2-hydroxyphenyl)sulfonamido)-[1,1′-biphenyl]-4-yl)oxy)acetate], for which the IC50 lay in the range of 500 to 20000 nM against ACL [1] and 500 to 30000 nM on ACL [2].
As to `O=S(=O)(Nc1cc(-c2ccccc2)c(F)cc1F)c1cc(-c2nnn[nH]2)cc(Cl)c1O` [I-269, 3-chloro-N-[4,6-difluoro-[1,1-biphenyl]-3-yl]-2-hydroxy-5-(1H-1,2,3,4-tetrazol-5-yl)benzene-1-sulfonamide], the IC50 fell in the range of 500 to 20000 nM against ACL [1] and 500 to 30000 nM on ACL [2].
As to `COc1ccc(-c2ccccc2)cc1NS(=O)(=O)c1cc(C(=O)N2CC(N)C2)cc(Cl)c1O` [I-276, 5-(3-aminoazetidine-1-carbonyl)-3-chloro-2-hydroxy-N-[4-methoxy-[1,1-biphenyl]-3-yl]benzene-1-sulfonamide], the IC50 at ACL [1] (setting [3]) was below 50 nM; on ACL [2], 50 to 500 nM.
In the case of `NC1CN(C(=O)c2cc(Cl)c(O)c(S(=O)(=O)Nc3cc(-c4cc5ccccc5s4)c(F)cc3F)c2)C1` [I-282, 5-(3-aminoazetidine-1-carbonyl)-N-(5-(benzo[b]thiophen-2-yl)-2,4-difluorophenyl)-3-chloro-2-hydroxybenzenesulfonamide], the IC50 is below 50 nM at ACL [1] (setting [3]) and below 50 nM at ACL [2] (read-out: ACL-MDH Coupled Assay (IC50), 8 nM ACL, 60 μM CoA Na2, 85 μM Citrate, 250 μM ATP, 250 μM NADH).
Take `O=C(O)c1cc(F)c(-c2ccccc2)cc1NS(=O)(=O)c1cc(Cl)cc(Cl)c1O` [I-289, 5-((3,5-dichloro-2-hydroxyphenyl)sulfonamido)-2-fluoro-[1,1′-biphenyl]-4-carboxylic Acid]: the IC50 was in the range of 500 to 20000 nM against ACL [1] and 500 to 30000 nM on ACL [2].
For `O=C(O)c1ccc(-c2cc3ccccc3s2)cc1NS(=O)(=O)c1cc(Cl)cc(Cl)c1` [I-293, 4-(benzo[b]thiophen-2-yl)-2-((3,5-dichlorophenyl)sulfonamido)benzoic acid], the 50% inhibitory concentration (IC50) against ACL [1] fell in the range of 500 to 20000 nM; on ACL [2] it was 500 to 30000 nM.
For `O=C(O)c1ccc(-c2cc3ccccc3s2)cc1NS(=O)(=O)c1cc(Cl)cc(C(F)(F)F)c1` [I-294, 4-(benzo[b]thiophen-2-yl)-2-((3-chloro-5-(trifluoromethyl)phenyl)sulfonamido)benzoic Acid], in that order: 500 to 20000 nM and 500 to 30000 nM.
With `COC(=O)c1cc(Br)cc(S(=O)(=O)Nc2cc(-c3ccccc3)ccc2C(=O)O)c1` [I-295, 3-((3-bromo-5-(methoxycarbonyl)phenyl)sulfonamido)-[1,1′-biphenyl]-4-carboxylic Acid], the IC50 on ACL [1] lay in the range of 500 to 20000 nM; against ACL [2] it was 500 to 30000 nM.
